Experimental findings from the supplement of paper PMC10920090 are described below.

The structures appear in SMILES notation.

Experiment [1] concerns MDA-MB-231. In words: drug sensitivity score (DSS), cytotoxicity CellTox Green; higher = more cytotoxic; extreme values may be limits of the assay. The conditions noted are these: 72 h.
Experiment [2] relates to MDA-MB-231. In words: drug sensitivity score (DSS), cell viability CellTiter-Glo; higher = more sensitive; extreme values may be limits of the assay. To be noted: 72 h.
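Wherever drug sensitivity score (DSS), cytotoxicity CellTox Green is given: DSS summarises each dose–response curve by combining IC50, EC50, maximal inhibition and efficacy across drug concentrations.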

Turning to `CN1CCc2c(c3ccccc3n2Cc2ccc(C(=O)NO)cc2)C1` [Tubastatin A], the drug sensitivity score in the experiment with MDA-MB-231 [1] (shRNA: shPPFIA1_1) was 0.1 DSS; in the experiment with MDA-MB-231 [1] (shRNA: shScramble), 0 DSS; in the experiment with MDA-MB-231 [2] (shRNA: shPPFIA1_1) it was 0 DSS; in the experiment with MDA-MB-231 [2] (shRNA: shScramble), 1 DSS.

On to `O=C(c1cccc(Cl)c1F)N1CCN(Cc2cccc(Nc3nccs3)n2)CC1` [MK-8745], for which the drug sensitivity score with MDA-MB-231 [1] (shRNA: shPPFIA1_1) amounted to 0.5 DSS; in the experiment with MDA-MB-231 [1] (shRNA: shScramble) it was 0.3 DSS; with MDA-MB-231 [2] (shRNA: shPPFIA1_1), 0.9 DSS; in the experiment with MDA-MB-231 [2] (shRNA: shScramble) it was 0.3 DSS.

`O=C(Nc1ccncc1)C(=O)c1cn(Cc2ccc(Cl)cc2)c2ccccc12` [Indibulin]: the drug sensitivity score is 2.3 DSS with MDA-MB-231 [1] (shRNA: shPPFIA1_1), 0 DSS in the experiment on MDA-MB-231 [1] (shRNA: shScramble), 0 DSS in the experiment with MDA-MB-231 [2] (shRNA: shPPFIA1_1) and 3.1 DSS in the experiment with MDA-MB-231 [2] (shRNA: shScramble).

For `COc1ccccc1S(=O)(=O)Nc1ccc2c(c1)CN(C)C(=O)N2` [PFI-1], the drug sensitivity score stood at 0 DSS in the experiment with MDA-MB-231 [1] (shRNA: shPPFIA1_1), 0 DSS in the experiment with MDA-MB-231 [1] (shRNA: shScramble), 1.4 DSS in the experiment on MDA-MB-231 [2] (shRNA: shPPFIA1_1) and 4.4 DSS in the experiment with MDA-MB-231 [2] (shRNA: shScramble).

Take `Cc1cc(-c2ncc(-c3cccnc3)cc2/C=C/c2ccccc2)cnc1-c1cccnc1` [Pyridoclax]: the drug sensitivity score in the experiment with MDA-MB-231 [1] (shRNA: shPPFIA1_1) was 0.3 DSS; with MDA-MB-231 [1] (shRNA: shScramble), 0 DSS; with MDA-MB-231 [2] (shRNA: shPPFIA1_1), 1.9 DSS; in the experiment with MDA-MB-231 [2] (shRNA: shScramble), 5.9 DSS.

As to `C=C(c1ccc(C(=O)O)cc1)c1cc2c(cc1C)C(C)(C)CCC2(C)C` [Bexarotene], the drug sensitivity score with MDA-MB-231 [1] (shRNA: shPPFIA1_1), with MDA-MB-231 [1] (shRNA: shScramble), with MDA-MB-231 [2] (shRNA: shPPFIA1_1) and with MDA-MB-231 [2] (shRNA: shScramble) was 0 DSS each time.

Consider `COc1cccc2c1C(=O)c1c(O)c3c(c(O)c1C2=O)C[C@@](O)(/C(CO)=N/NC(=O)CCCCCN1C(=O)C=CC1=O)C[C@@H]3O[C@H]1C[C@H](N)[C@H](O)[C@H](C)O1` [Aldoxorubicin], for which the drug sensitivity score is 0 DSS in the experiment on MDA-MB-231 [1] (shRNA: shPPFIA1_1), 0 DSS in the experiment with MDA-MB-231 [1] (shRNA: shScramble), 1.2 DSS with MDA-MB-231 [2] (shRNA: shPPFIA1_1) and 7.3 DSS in the experiment with MDA-MB-231 [2] (shRNA: shScramble).

Consider `FC(F)(F)c1ccc(CNc2ccc(Cc3c[nH]c4ncc(Cl)cc34)cn2)cn1` [Pexidartinib], for which the drug sensitivity score in the experiment with MDA-MB-231 [1] (shRNA: shPPFIA1_1), in the experiment on MDA-MB-231 [1] (shRNA: shScramble), with MDA-MB-231 [2] (shRNA: shPPFIA1_1) and in the experiment with MDA-MB-231 [2] (shRNA: shScramble) was 0 DSS in each case.

For `COc1cccc2c1C(=O)c1c(O)c3c(c(O)c1C2=O)C[C@@](O)(C(=O)CO)C[C@@H]3O[C@H]1C[C@H](N)[C@H](O)[C@H](C)O1` [Doxorubicin], the drug sensitivity score in the experiment on MDA-MB-231 [1] (shRNA: shPPFIA1_1) turned out to be 0 DSS; in the experiment with MDA-MB-231 [1] (shRNA: shScramble) it was 0 DSS; with MDA-MB-231 [2] (shRNA: shPPFIA1_1), 1.4 DSS; in the experiment with MDA-MB-231 [2] (shRNA: shScramble), 6.8 DSS.

Consider `CC(C)C[C@H](NC(=O)[C@@H](COC(C)(C)C)NC(=O)[C@H](Cc1ccc(O)cc1)NC(=O)[C@H](CO)NC(=O)[C@H](Cc1c[nH]c2ccccc12)NC(=O)[C@H](Cc1cnc[nH]1)NC(=O)[C@@H]1CCC(=O)N1)C(=O)N[C@@H](CCCNC(=N)N)C(=O)N1CCC[C@H]1C(=O)NNC(N)=O` [Goserelin], for which the drug sensitivity score in the experiment with MDA-MB-231 [1] (shRNA: shPPFIA1_1), in the experiment with MDA-MB-231 [1] (shRNA: shScramble), in the experiment with MDA-MB-231 [2] (shRNA: shPPFIA1_1) and in the experiment on MDA-MB-231 [2] (shRNA: shScramble) was 0 DSS each time.

`CNC(=O)c1cccc(-c2ccc3c(N4CCOC[C@@H]4C)nc(N4CCOC[C@@H]4C)nc3n2)c1` [AZD2014]: the drug sensitivity score in the experiment with MDA-MB-231 [1] (shRNA: shPPFIA1_1) is 0 DSS; with MDA-MB-231 [1] (shRNA: shScramble) it was 0.5 DSS; in the experiment on MDA-MB-231 [2] (shRNA: shPPFIA1_1), 0 DSS; with MDA-MB-231 [2] (shRNA: shScramble), 7.9 DSS.

Consider `O=C(O)CNC(=O)c1c(O)c2ccccc2n(Cc2ccccc2)c1=O` [IOX-2], for which the drug sensitivity score in the experiment with MDA-MB-231 [1] (shRNA: shPPFIA1_1) stood at 0 DSS; in the experiment with MDA-MB-231 [1] (shRNA: shScramble) it was 0 DSS; in the experiment with MDA-MB-231 [2] (shRNA: shPPFIA1_1), 5 DSS; with MDA-MB-231 [2] (shRNA: shScramble), 4 DSS.

Turning to `C[C@@]1(C(=O)Nc2ccc(F)nc2)CCCN1c1nc(Nc2cc(C3CC3)n[nH]2)c2cccn2n1`, the drug sensitivity score in the experiment on MDA-MB-231 [1] (shRNA: shPPFIA1_1) is 0.8 DSS; in the experiment with MDA-MB-231 [1] (shRNA: shScramble), 0 DSS; in the experiment with MDA-MB-231 [2] (shRNA: shPPFIA1_1), 0.2 DSS; in the experiment on MDA-MB-231 [2] (shRNA: shScramble) it was 3.7 DSS.

As for `Cc1ccc(C(=O)N(CCCN)[C@@H](c2oc3cc(Cl)ccc3c(=O)c2Cc2ccccc2)C(C)C)cc1`, the drug sensitivity score turned out to be 9.8 DSS in the experiment on MDA-MB-231 [1] (shRNA: shPPFIA1_1), 8.7 DSS with MDA-MB-231 [1] (shRNA: shScramble), 0 DSS with MDA-MB-231 [2] (shRNA: shPPFIA1_1) and 6.3 DSS in the experiment on MDA-MB-231 [2] (shRNA: shScramble).

For the compound `COc1cc2ncnc(Oc3cccc(NC(=O)Nc4cc(C(C)(C)C(F)(F)F)on4)c3)c2cc1OC`, the drug sensitivity score in the experiment with MDA-MB-231 [1] (shRNA: shPPFIA1_1) amounted to 4 DSS; with MDA-MB-231 [1] (shRNA: shScramble) it was 7.8 DSS; in the experiment on MDA-MB-231 [2] (shRNA: shPPFIA1_1) it was 0 DSS; with MDA-MB-231 [2] (shRNA: shScramble) it was 7.7 DSS.

Consider `O=C(NOC[C@H](O)CO)c1ccc(F)c(F)c1Nc1ccc(I)cc1F`, for which the drug sensitivity score in the experiment on MDA-MB-231 [1] (shRNA: shPPFIA1_1) came to 2 DSS; in the experiment with MDA-MB-231 [1] (shRNA: shScramble) it was 4.7 DSS; with MDA-MB-231 [2] (shRNA: shPPFIA1_1), 0 DSS; in the experiment on MDA-MB-231 [2] (shRNA: shScramble), 9.8 DSS.
